Results published in US20240197756A1, “METHODS OF TREATMENT WITH NEUROACTIVE STEROIDS” (priority 2021, published 2024).
“Also recorded” adds a separate entry of the source.

Columns and labels:
[1] = tested on: extrasynaptic form of GABAA receptors; experiment: PAM selectivity for extrasynaptic vs synaptic GABAA receptors
harmaline-induced tremor = experiment: Rat Harmaline Induced Tremor (rHIT) model; assay type: in vivo; details: 0.3, 1, 3, 10 mg/kg i.p., 30 min before harmaline 30 mg/kg i.p. (FIG. 9)
Source text: A rat model of tremor (Rat Harmaline Induced Tremor; rHIT) was used to assess the impact of Compound 1 on reducing the symptoms of tremor. Male SD rats (SLAC, Shanghai, China) having a body weight of about 250 g at the time of testing were fed ad libitum and kept in a 12:12 light-dark cycle room, with the lights on from 5 a.m. to 5 p.m, throughout the study. Rats were allowed to acclimate to standard laboratory conditions for at least 5-7 days prior to the experiment.
One day prior to testing, a naive rat was placed in the testing chamber, which was a plexiglass chamber with a piezoelectric plate attached at the bottom to transduce tremor behavior into an electrical signal. The rat was placed in the chamber in order to adjust the spontaneous activity baseline signal. […]
Next, at T=0 minutes, all groups were intraperitoneally administered 30 mg/kg (5 mL/kg) of harmaline formulated in a saline vehicle. The post-harmaline effect was measured for twenty minutes (T=10 to 30 minutes). […]
Piezoelectric plate signal analysis: For the power spectral density analysis, electrical tremor signal was processed with fast Fourier transform (FFT) at a resolution of 0.5 Hz bins. […] The average maximum power density across the 8-13 Hz band in 0.5 Hz bins was also calculated. […]

[2] = Multiple escalating dose study, plasma pharmacokinetics of oral suspension (Cohorts 1-3); assay type: in vivo, human
Method: Healthy subjects aged 18 to 55 years were treated with an oral suspension of Compound 1 to study the safety, tolerability, pharmacokinetics and pharmacodynamics of Compound 1 in healthy subjects.
The study was a randomized, double-blind, placebo-controlled multiple escalating dose study comprised of 3 cohorts that each received an oral suspension. Each cohort consisted of two groups: one group treated with Compound 1 and another treated with placebo. In each cohort, the ratio of Compound 1-treated subjects to placebo-treated subjects was 3:1.
The Compound 1-treated subjects of Cohort 1 were treated with 15.0 mg of Compound 1 once per day (QD). The Compound 1-treated subjects of Cohort 2 were treated with 30.0 mg of Compound 1 QD. The Compound 1-treated subjects of Cohort 3 were treated with 60.0 mg of Compound 1 QD.
Patients in each cohort were treated with Compound 1 for 14 consecutive days, unless dosing was halted by the Safety Review Committee (SRC). The dosing of subjects in each of the cohorts was staggered with the decision to dose escalate based on SRC review of a minimum of 14 days of observation of safety and tolerability data and review of the available plasma PK data from the preceding cohort(s). Thus, dose escalation was predicated on tolerability of the prior cohorts.
Compound 1 was administered under fasted conditions (no food or drink, except water, for at least 10 hours prior to dosing). Immediately after administration of Compound 1, the subject was be administered 240 mL water. No additional fluid intake was allowed until 1 hour after Compound 1 administration.
Cohort 1 subjects received a single 15.0 mg dose of a Compound 1 suspension on the morning of Days 1-14. Cohort 2 subjects received a single 30.0 mg dose of a Compound 1 suspension on the morning of Days 1-14. Cohort 3 subjects received a single 60.0 mg dose of a Compound 1 suspension on the morning of Days 1-14. For all cohorts, the last treatment was administered on the morning of Day 14.
Data were obtained from the blood plasma samples collected from each cohort according to the schedule provided.
Plasma samples were analyzed to determine Compound 1 concentrations using a validated assay method. Pharmacokinetic variables (including but not limited to Cmax, Tmax and AUC(0-last)) were calculated using non-compartmental analysis. PK parameters for Compound 1 were derived from the plasma concentration data using non-compartmental analysis with Phoenix™ WinNonlin® v 8.0 (Pharsight Corporation, USA).
Blood (Cohorts 1-3): For each cohort, blood samples were collected on Days 1, 2, 3, 4, 5, 6 and 14 at the following time points: Day 1 at pre-dose (0 hour), 0.25, 0.5, 0.75, 1, 1.5, 2, 2.5, 3, 4, 6, 8, 12, 16 h post-dose; Day 2 at pre-dose (24 hours), Day 3 at pre-dose (48 hours), Day 4 at pre-dose (72 hours), Day 5 at pre-dose (96 hours), Day 6 at pre-dose (120 hours); Day 14 at pre-dose 0.25, 0.5, 0.75, 1, 1.5, 2, 2.5, 3, 4, 6, 8, 12, 16, 24, 36, 48, and 72 hours. Trough level blood samples were collected on Days 2, 3, 4, 5, 6 and 14, prior to the morning dose administrations.
Descriptive statistics were calculated for plasma and urine PK parameter and concentration data and summarized by study day and time point. Arithmetic means, coefficient of variation (CV), standard deviation, median, minimum, and maximum values, and number of observations were calculated for all PK parameters and trough concentration data. Except for Tmax, the geometric mean, geometric standard deviation, and geometric CV were provided for all PK parameter and concentration data.

[3] = Example 3 Part C: tablet single ascending doses, morning fasted vs 8 p.m., plasma pharmacokinetics; assay type: in vivo, human; details: for half-life: Mean (SD); for AUC(0-inf): AUCinf
Method: Patients with severe major depressive disorder (MDD) aged 18 to 65 years were treated with an oral suspension or tablet of Compound 1 to study the effect of food and time of administration on the pharmacokinetics, as well as the safety and tolerability of these formulations.
Part C is a randomized, participant- and Investigator-blinded, Sponsor-unblinded, placebo-controlled, parallel-group design to evaluate the pharmacokinetics and safety of single ascending doses of a Compound 1 citrate tablet. One cohort of 16 participants was planned, with 12 participants receiving Compound 1 and 4 participants receiving placebo. Part C also evaluated administration of a single dose level at 8 p.m., both 2 hours and 4 hours after dinner.
Preliminary pharmacokinetics data from Part A, where 45 mg and 60 mg of oral suspension were administered (Cohort 1), and Part C, where 40 mg (2×20 mg), 60 mg (3×20 mg) and 80 mg (4×20 mg) of the tablet formulation were administered, have been analyzed and are summarized below.
A tablet comprising Compound 1 was administered as single ascending doses of 40 mg, 60 mg and 80 mg under fasted conditions in the morning (FIG. 5). The 60 mg dosage was administered on two additional occasions at 8 p.m., once 4 hours after dinner and once 2 hours after dinner (FIG. 6).

[4] = Cohort 1 (15.0 mg QD), Day 14 steady state, Geo Mean
[5] = Cohort 1 (15.0 mg QD), Day 14 steady state, Mean
[6] = Cohort 1 (15.0 mg QD), Day 14 steady state, Median
[7] = Cohort 2 (30.0 mg QD), Day 14 steady state, Geo Mean
[8] = Cohort 2 (30.0 mg QD), Day 14 steady state, Mean
[9] = Cohort 3 (60.0 mg QD), Day 14 steady state, Geo Mean

Question: Which results are given for `COC[C@@]1(O)CC[C@@]2(C)[C@@H](CC[C@@H]3[C@@H]2CC[C@]2(C)[C@@H](C(=O)Cn4ccnc4)CC[C@@H]32)C1` [Compound 1, 3α-Hydroxy-3β-methoxymethyl-21-(1′-imidazolyl)-5α-pregnan-20-one]?
Answer: selectivity as PAM of the extrasynaptic form of GABAA receptors compared to the synaptic form [1]: approximately 10 fold; inhibition of harmaline-induced tremor (harmaline-induced tremor): dose-dependently inhibits; also recorded: dose dependent inhibition; accumulation factor of the dosing interval (ratio of AUCDay14/AUCDay1) ([2]; Cohort 1 (15 mg QD) and Cohort 2 (30 mg QD)): approximately 1.25; CLss/F [2, 4]: 30.497 L/h; t1/2 [2, 4]: 14.613 h; CLss/F [2, 5]: 31.415 L/h; t1/2 [2, 5]: 14.772 h; AUCinf [2, 6]: 595.2 ng·h/mL; CLss/F [2, 6]: 30.41 L/h; CLss/F [2, 7]: 30.178 L/h; t1/2 [2, 7]: 12.647 h; CLss/F [2, 8]: 30.949 L/h; t1/2 [2, 8]: 12.701 h; CLss/F ([2]; Cohort 2 (30.0 mg QD), Day 14 steady state, Median): 30.12 L/h; accumulation factor of the dosing interval (ratio of AUCDay14/AUCDay1) ([2]; Cohort 3 (60 mg QD)): 0.89; CLss/F [2, 9]: 30.398 L/h; t1/2 [2, 9]: 12.164 h; CLss/F ([2]; Cohort 3 (60.0 mg QD), Day 14 steady state, Mean): 32.142 L/h; CLss/F ([2]; Cohort 3 (60.0 mg QD), Day 14 steady state, Median): 28.45 L/h; AUC0-tau ([2]; human, in vivo, 60 mg): 2356.80 ng·h/mL; steady state clearance ([2]; human, in vivo, 60 mg): approximately 31 L/hour; absorption ([2]; in vivo, po): rapid absorption; Tmax ([3]; human, in vivo, 40 mg): 1.5 h; half-life ([3]; human, in vivo, 40 mg, 9 a.m. administration (fasted), N = 13): 11.9 h; AUC(0-inf) ([3]; human, in vivo, 40 mg): 1390 ng·h/mL; Cmax ([3]; human, in vivo, 40 mg): 181 ng/mL; Tmax ([3]; human, in vivo, 60 mg): 2.5 h; tmax ([3]; human, in vivo, 60 mg): 2.5 (1.0, 3.0) h; half-life ([3]; human, in vivo, 60 mg, 8 p.m. administration (60 mg), 2 h after dinner, N = 12): 9.6 h; half-life ([3]; human, in vivo, 60 mg, 8 p.m. administration (60 mg), 4 h after dinner, N = 11): 11.4 h; half-life ([3]; human, in vivo, 60 mg, 9 a.m. administration (fasted), N = 12): 11.5 h; AUC(0-inf) ([3]; human, in vivo, 60 mg): 2610 ng·h/mL; Cmax ([3]; human, in vivo, 60 mg): 408 ng/mL; half-life ([3]; human, in vivo, 80 mg, 9 a.m. administration (fasted), N = 12): 11.4 h; AUC(0-inf) ([3]; human, in vivo, 80 mg): 3980 ng·h/mL; Cmax ([3]; human, in vivo, 80 mg): 546 ng/mL; dose proportionality of exposure ([3]; tablet, fasted, between 60 mg and 80 mg): closer to dose-proportional; increase in exposure over a 2-fold increase in dose ([3]; tablet, fasted, from 40 mg to 80 mg): ~3 fold
